Results from patent publication US12215173B2, “Kappa opioid receptor peptide amide ligands” (priority 2019, dated 2025).
Read-outs that look alike come from different tables or passages of the source.

Experiments:
[1] = target: recombinant human kappa (KOR) opioid receptor (Homo sapiens (Human), UniProt P41145); experiment: biochemical; type: binding
[2] = target: Opioid Kappa Receptor (recombinant human, HEK293 cells) (Homo sapiens (Human), UniProt P41145); experiment: cell-based
[3] = target: recombinant human delta (DOR) opioid receptor (Homo sapiens (Human), UniProt P41143); experiment: Opioid receptor radioligand binding assay, DOR
recombinant human delta (DOR) opioid receptor, sequence (P41143 whole entry, looked up): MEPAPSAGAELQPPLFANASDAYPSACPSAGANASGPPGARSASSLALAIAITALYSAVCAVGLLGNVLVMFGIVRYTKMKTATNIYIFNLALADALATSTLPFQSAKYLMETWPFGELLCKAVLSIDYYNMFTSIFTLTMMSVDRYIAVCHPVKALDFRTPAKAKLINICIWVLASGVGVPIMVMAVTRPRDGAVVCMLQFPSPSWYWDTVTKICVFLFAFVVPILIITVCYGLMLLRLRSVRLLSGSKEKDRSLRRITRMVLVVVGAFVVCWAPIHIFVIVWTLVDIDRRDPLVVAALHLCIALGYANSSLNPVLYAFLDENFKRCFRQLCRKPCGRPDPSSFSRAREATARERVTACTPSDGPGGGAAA

[4] = target: recombinant human mu (MOR) opioid receptor (Homo sapiens (Human), UniProt P35372); experiment: Opioid receptor radioligand binding assay, MOR
[5] = HEK293 cell membranes, 0.5 nM [3H]diprenorphine
[6] = HEK293 cell membranes, 0.5 nM [3H]DADLE, read-out: DOR, IC50
[7] = HEK293 cell membranes, 0.5 nM [3H]DAMGO, read-out: MOR, IC50

Structure (SMILES) | IC50 [1, 5] [µM] | EC50 ([2]; read-out: EC50) [µM] | IC50 [3, 6] [µM] | IC50 [4, 7] [µM] | IC50 [3] [µM] | IC50 [4] [µM] | IC50 [1] [µM] | EC50 [2] [µM]
CCNC(=O)C(=O)NC1CCN(C(=O)[C@@H](CCCCN)NC(=O)[C@@H](CC(C)C)NC(=O)[C@@H](Cc2ccccc2)NC(=O)[C@H](N)Cc2ccccc2)CC1 [Compound 13-35] | 0.00031 | 0.0108 | > 10 | 8.43 | – | – | – | –
CCNC(=O)C(=O)N1CCC(NC(=O)[C@@H](CCCCN)NC(=O)[C@@H](CC(C)C)NC(=O)[C@@H](Cc2ccccc2)NC(=O)[C@H](N)Cc2ccccc2)CC1 [Compound 13-36] | 0.00049 | 0.0377 | > 10 | > 10 | – | – | – | –
CC(C)C[C@@H](NC(=O)[C@@H](Cc1ccccc1)NC(=O)[C@H](N)Cc1ccccc1)C(=O)N[C@H](CCCCN)C(=O)N1CCC(NC(=O)C[C@H](N)C(N)=O)CC1 [Compound 13-38] | 0.0003 | 0.00608 | – | – | > 10 | > 10 | – | –
CCOC(=O)C(N)C(=O)NC1CCN(C(=O)[C@@H](CCCCN)NC(=O)[C@@H](CC(C)C)NC(=O)[C@@H](Cc2ccccc2)NC(=O)[C@H](N)Cc2ccccc2)CC1 (some centres unmarked) [Compound 13-39] | 0.00023 | 0.0147 | > 10 | > 10 | – | – | – | –
CC(C)C[C@@H](NC(=O)[C@@H](Cc1ccccc1)NC(=O)[C@H](N)Cc1ccccc1)C(=O)N[C@H](CCCCN)C(=O)N1CCC(NC(=O)C(N)C(=O)O)CC1 (some centres unmarked) [Compound 13-40] | 0.0003 | 0.00748 | > 10 | 6.39 | – | – | – | –
CC(C)C[C@@H](NC(=O)[C@@H](Cc1ccccc1)NC(=O)[C@H](N)Cc1ccccc1)C(=O)N[C@H](CCCCN)C(=O)N1CCC(NC(=O)CC[C@H](N)C(N)=O)CC1 [Compound 13-41] | 0.00021 | 0.00912 | > 10 | 8.22 | – | – | – | –
CC(C)C[C@@H](NC(=O)[C@@H](Cc1ccccc1)NC(=O)[C@H](N)Cc1ccccc1)C(=O)N[C@H](CCCCN)C(=O)N1CCC(NC(=O)[C@@H](N)CC(N)=O)CC1 [Compound 13-42] | 0.00048 | 0.00843 | > 10 | > 10 | – | – | – | –
CCNC(=O)C(=O)N1CCN(C(=O)[C@@H](CCCCN)NC(=O)[C@@H](CC(C)C)NC(=O)[C@@H](Cc2ccccc2)NC(=O)[C@H](N)Cc2ccccc2)CC1 [Compound 13-43] | 0.00033 | 0.0087 | > 10 | > 10 | – | – | – | –
CC(C)C[C@@H](NC(=O)[C@@H](Cc1ccccc1)NC(=O)[C@H](N)Cc1ccccc1)C(=O)N[C@H](CCCCN)C(=O)NCc1n[nH]c(=O)[nH]1 [Compound 13-45] | 0.00043 | 0.00153 | – | – | > 10 | > 10 | – | –
CCOC(=O)N1CCN(C(=O)[C@@H](CCCCN)NC(=O)[C@@H](CC(C)C)NC(=O)[C@@H](Cc2ccccc2)NC(=O)[C@H](N)Cc2ccccc2)CC1 [Compound 13-47] | – | – | > 10 | > 10 | – | – | 0.00027 | 0.00484
CC(C)C[C@@H](NC(=O)[C@@H](Cc1ccccc1)NC(=O)[C@H](N)Cc1ccccc1)C(=O)N[C@H](CCCCN)C(=O)N1CCN(C(=O)NC2CC2)CC1 [Compound 13-48] | 0.00036 | 0.00569 | – | – | > 10 | > 10 | – | –
CC(C)C[C@@H](NC(=O)[C@@H](Cc1ccccc1)NC(=O)[C@H](N)Cc1ccccc1)C(=O)N[C@H](CCCCN)C(=O)N(C)C[C@H](O)[C@@H](O)[C@H](O)[C@H](O)CO [Compound 13-50] | 0.00037 | 0.0122 | > 10 | 1.11 | – | – | – | –
CC(C)C[C@@H](NC(=O)[C@@H](Cc1ccccc1)NC(=O)[C@H](N)Cc1ccccc1)C(=O)N[C@H](CCCCN)C(=O)NCCOCCO [Compound 13-51] | 0.00027 | 0.00515 | > 10 | 0.349 | – | – | – | –
CC(C)C[C@@H](NC(=O)[C@@H](Cc1ccccc1)NC(=O)[C@H](N)Cc1ccccc1)C(=O)N[C@H](CCCCN)C(=O)NCCOCCOCCO [Compound 13-52] | 0.00102 | 0.0121 | > 10 | > 10 | – | – | – | –
CC(C)C[C@@H](NC(=O)[C@@H](Cc1ccccc1)NC(=O)[C@H](N)Cc1ccccc1)C(=O)N[C@H](CCCCN)C(=O)NCc1ccncc1 [Compound 13-53] | 0.00201 | 0.0126 | – | – | > 10 | 8.75 | – | –
CC(C)C[C@@H](NC(=O)[C@@H](Cc1ccccc1)NC(=O)[C@H](N)Cc1ccccc1)C(=O)N[C@H](CCCCN)C(=O)N1CCC(NC(=O)/C=C\C(=O)NC(N)=O)CC1 [Compound 13-54] | 0.00021 | 0.0151 | – | – | > 10 | 1.53 | – | –
CC(C)C[C@@H](NC(=O)[C@@H](Cc1ccccc1)NC(=O)[C@H](N)Cc1ccccc1)C(=O)N[C@H](CCCCN)C(=O)N1CCC(NC(=O)CNC(N)=O)CC1 [Compound 13-55] | 0.00035 | 0.0204 | – | – | > 10 | > 10 | – | –
CC(=O)N[C@@H](CCC(N)=O)C(=O)NC1CCN(C(=O)[C@@H](CCCCN)NC(=O)[C@@H](CC(C)C)NC(=O)[C@@H](Cc2ccccc2)NC(=O)[C@H](N)Cc2ccccc2)CC1 [Compound 13-56] | 0.00035 | 0.0167 | – | – | > 10 | > 10 | – | –
CNC(=O)N1CCN(C(=O)[C@@H](CCCCN)NC(=O)[C@@H](CC(C)C)NC(=O)[C@@H](Cc2ccccc2)NC(=O)[C@H](N)Cc2ccccc2)CC1 [Compound 13-58] | 0.00029 | 0.0108 | > 10 | > 10 | – | – | – | –
CC(C)C[C@@H](NC(=O)[C@@H](Cc1ccccc1)NC(=O)[C@H](N)Cc1ccccc1)C(=O)N[C@H](CCCCN)C(=O)N1CCN(C(=O)N(C)C)CC1 [Compound 13-59] | 0.00036 | 0.0143 | > 10 | > 10 | – | – | – | –
CNC(=O)NC1CCN(C(=O)[C@@H](CCCCN)NC(=O)[C@@H](CC(C)C)NC(=O)[C@@H](Cc2ccccc2)NC(=O)[C@H](N)Cc2ccccc2)CC1 [Compound 13-60] | 0.00042 | 0.0143 | – | – | > 10 | > 10 | – | –
COC(=O)C1(N)CCN(C(=O)[C@@H](CCCCN)NC(=O)[C@@H](CC(C)C)NC(=O)[C@@H](Cc2ccccc2)NC(=O)[C@H](N)Cc2ccccc2)C1 (some centres unmarked) [Compound 13-62] | 0.0002 | 0.00296 | – | – | > 10 | > 10 | – | –
CC(C)C[C@@H](NC(=O)[C@@H](Cc1ccccc1)NC(=O)[C@H](N)Cc1ccccc1)C(=O)N[C@H](CCCCN)C(=O)N1CC(=O)NC(=O)C1 [Compound 13-63] | 0.00181 | 0.0052 | > 10 | > 10 | – | – | – | –
CCNC(=O)N1CCN(C(=O)[C@@H](CCCCN)NC(=O)[C@@H](CC(C)C)NC(=O)[C@@H](Cc2ccccc2)NC(=O)[C@H](N)Cc2ccccc2)CC1 [Compound 13-64] | 0.00047 | 0.00291 | > 10 | > 10 | – | – | – | –
CCOC(=O)C1(N)CCN(C(=O)[C@@H](CCCCN)NC(=O)[C@@H](CC(C)C)NC(=O)[C@@H](Cc2ccccc2)NC(=O)[C@H](N)Cc2ccccc2)C1 (some centres unmarked) [Compound 35] | 0.00019 | 0.0117 | – | – | > 10 | 8.18 | – | –
CC(C)C[C@@H](NC(=O)[C@@H](Cc1ccccc1)NC(=O)[C@H](N)Cc1ccccc1)C(=O)N[C@H](CCCCN)C(=O)N1CCC(N)(C(=O)OC2CC2)C1 (some centres unmarked) [Compound 40] | 0.00041 | 0.0119 | – | – | > 1 | > 10 | – | –
